SMILES strings stand for the structures.

For experiment [1], the target named is T1, RORγt ligand-binding domain (RORγt-LBD) (Homo sapiens, UniProt P51449).
T1 construct: 20 nM recombinantly expressed RORγ-LBD fused to GST
T1 sequence (P51449 269-508 limits assumed): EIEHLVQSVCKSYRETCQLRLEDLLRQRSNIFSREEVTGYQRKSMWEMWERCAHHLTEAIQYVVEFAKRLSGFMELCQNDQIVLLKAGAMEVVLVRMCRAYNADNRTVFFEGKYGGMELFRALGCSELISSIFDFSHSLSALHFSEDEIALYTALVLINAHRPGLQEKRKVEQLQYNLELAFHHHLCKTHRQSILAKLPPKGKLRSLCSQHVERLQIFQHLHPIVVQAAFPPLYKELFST
In words: Time-resolved FRET (TR-FRET) RORγt coactivator assay. As to conditions: GST-RORγ-LBD, biotinylated RIP140 peptide, 2 hours at room temperature. The procedure, abridged:
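GST-tagged RORγt-LBD (20 nM) with 30 nM biotinylated RIP140-derived peptide, streptavidin-terbium and d2 anti-GST in CHAPS buffer (1 mM DTT, 2 mM EDTA, 0.1% BSA), 1% DMSO. Compounds at 0.3 nM–30 μM final, equilibrated 2 h, room temperature, dark. Coactivator displacement lowers the TR-FRET signal; IC50 (μM) and Emax (%) reported.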

Experiment [2] concerns Murine EL-4 lymphoma cell line overexpressing human RORγt. In words: IL-17 secretion from EL4 murine lymphoma. In kind it is cell-based. As to conditions: Mus musculus; human RORγt-transfected EL4 cells, PMA (10 ng/mL) and ionomycin (1 μM), 24 h; read-out: IC50, IL-17 secretion inhibition. The procedure, abridged:
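EL-4 cells electroporated with hRORγt plasmid, seeded at 150000 cells/well and pretreated with compound for 24 h, then stimulated with PMA (10 ng/mL) plus ionomycin (1 μM final) with compound for a further 24 h at 37 °C. IL-17 in supernatant measured by HTRF or ELISA.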

As for `Cc1ccc(C(NC(=O)Cc2ccc3c(c2)CC(=O)N3)c2ccc(C)o2)c(N2CCCCC2)c1` (centres unmarked) [Cpd. 24, N-{[4-methyl-2-(piperidin-1-yl)phenyl](5-methylfuran-2-yl)methyl}-2-(2-oxo-2,3-dihydro-1H-indol-5-yl)acetamide], the IC50 in experiment [1] is less than 0.01 µM; in experiment [2], less than 0.1 µM.

For the origin of these results see patent US11052092B2, “N-{[2-(piperidin-1-yl)phenyl](phenyl)methyl}-2-(3-oxo-3,4-dihydro-2H-1,4-benzoxazin-7-yl)acetamide derivatives and related compounds as ROR-gamma modulators for treating autoimmune diseases” (Genfit, priority 2017, dated 2021).
